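Step 1: Grow cells in 96-well plates. Step 2: Expose to compound for 48 hours at 5 concentrations. Step 3: Interpolate endpoints linearly; if unreached, use highest concentration. Here, GI50 denotes the concentration required for 50% inhibition of growth.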 Calls of active or inactive are those of the source. No stated cut-off is given here; in the data, active = GI50 up to about 1.1 µM and inactive = higher.
Key:
Test in all cases: DTP human tumour cell line panel, 48 h
[1] = system: 786-0
[2] = system: A498
[3] = system: HCT-15
[4] = system: HL-60
[5] = system: HOP-62
[6] = system: Hs-578T
[7] = system: LOX IMVI
[8] = system: MDA-MB-231
[9] = system: MDA-MB-435
[10] = system: Malme-3M
[11] = system: OVCAR-3
[12] = system: PC-3
[13] = system: RPMI-8226
[14] = system: RXF 393
[15] = system: SF-268
[16] = system: SK-MEL-28
[17] = system: SN12C
[18] = system: SNB-75
[19] = system: TK-10
[20] = system: UACC-62

| SMILES | GI50 [1] | GI50 [2] | GI50 [3] | GI50 [4] | GI50 [5] | GI50 [6] | GI50 [7] | GI50 [8] | GI50 [9] | GI50 [10] | GI50 [11] | GI50 [12] | GI50 [13] | GI50 [14] | GI50 [15] | GI50 [16] | GI50 [17] | GI50 [18] | GI50 [19] | GI50 [20] |
| --- | --- | --- | --- | --- | --- | --- | --- | --- | --- | --- | --- | --- | --- | --- | --- | --- | --- | --- | --- | --- |
| O=C(O)c1ccc(NC(c2ccccc2)c2ccc3cccnc3c2O)cc1 (stereo not given) | 6.04 µM (inactive) | 18.3 µM (inactive) | 4.95 µM | 2.65 µM (inactive) | 6.15 µM (inactive) | 28.5 µM (inactive) | 7.8 µM (inactive) | 10.8 µM (inactive) | 16.3 µM (inactive) | 29 µM (inactive) | 2.99 µM (inactive) | 9.57 µM (inactive) | 4.38 µM (inactive) | 9.12 µM (inactive) | 7.1 µM (inactive) | 11.2 µM (inactive) | 6.87 µM (inactive) | 11.6 µM (inactive) | 13.7 µM (inactive) | 6.58 µM (inactive) |
| COc1ccc(-c2cn3c(nc4ccccc43)c(C)n2)cc1 | 41 µM (inactive) | > 76.4 µM (inactive) | > 93.1 µM | > 56.1 µM (inactive) | 31.8 µM (inactive) | 41.6 µM (inactive) | > 93.5 µM (inactive) | > 100 µM (inactive) | > 96.2 µM (inactive) | 69.2 µM (inactive) | 54.8 µM (inactive) | 72.3 µM (inactive) | > 75.9 µM (inactive) | 44.5 µM (inactive) | > 51.5 µM (inactive) | 95.5 µM (inactive) | > 77.1 µM (inactive) | > 50.8 µM (inactive) | 58.9 µM (inactive) | 35.3 µM (inactive) |
| COc1ccc(C(OCC2OC(n3cc(C)c(=O)[nH]c3=O)CC2n2cc(Cn3cc(Cl)c(=O)[nH]c3=O)nn2)(c2ccccc2)c2ccccc2)cc1 (stereo not given) | > 100 µM (inactive) | > 100 µM (inactive) | > 100 µM | 3 µM (inactive) | > 100 µM (inactive) | 65 µM (inactive) | > 100 µM (inactive) | 27.6 µM (inactive) | 7.18 µM (inactive) | > 100 µM (inactive) | > 100 µM (inactive) | 13.6 µM (inactive) | 4.31 µM (inactive) | > 100 µM (inactive) | > 100 µM (inactive) | 87.5 µM (inactive) | > 100 µM (inactive) | > 100 µM (inactive) | > 100 µM (inactive) | 38 µM (inactive) |

From ChEMBL document CHEMBL1201862, “PubChem BioAssay data set” (2004)
